Test results taken from patent publication US4518413A, “Poly-phosphorodiamide urease inhibitors and urease inhibited urea based fertilizer compositions” (Allied Corporation, priority 1983, dated 1985).

System: soil urease
Assay: Efficacy test: inhibition of urease-catalysed urea hydrolysis in soil (urea remaining after incubation)
Type: biochemical
Settings: New York soil (Cazenovia silt loam, pH 7.2); 800 micrograms test compound and 42.8 mg urea per 20 g air-dry soil; incubated at 25° C. for three days; run in triplicate
Procedure: Efficacy tests were conducted to evaluate the efficacy of certain representative poly-phosphorodiamide compounds as urease inhibitors. The inhibition tests were run in a New York soil (Cazenovia silt loam, pH 7.2). Evaluations (run in triplicate) consisted of applying 800 micrograms of the test compound in 5 mL of water and 42.8 mg of urea in 1 mL of water to 20 g of air-dry soil in a glass bottle. The bottle was capped with perforated aluminum foil and incubated at 25° C. for three days prior to extraction with 100 mL of a 2M KCl solution containing 0.5 mg of phenylmercuric acetate. The extracts were then analyzed for remaining urea using an autoanalyzer. Percent inhibition was calculated as [formula] where A is urea recovered from unincubated sample (urea added to soil and immediately extracted); B is urea recovered from inhibited sample; and C is urea recovered from the control (uninhibited sample).

SMILES | % Inhibition [%]
NP(N)(=O)NCCCCCCNP(N)(N)=O [N,N'-Bis-(diaminophosphinyl)-1,6-diaminohexane] | 86
CC1(NP(N)(N)=O)CCC(C(C)(C)NP(N)(N)=O)CC1 (stereo not drawn) [N,N'-Bis-(diaminophosphinyl)-1,8-diamino-p-menthane] | 84
NP(N)(=O)N1CCN(P(N)(N)=O)CC1 [N,N'Bis-diaminophosphinyl-piperazine, N,N'-Bis-(diaminophosphinyl)piperazine] | 76
NP(N)(=O)Oc1cccc(OP(N)(N)=O)c1 [Phosphorodiamidic Acid 1,3-Phenylene Ester] | 81
NP(N)(=O)Oc1ccc(OP(N)(N)=O)cc1 [Phosphorodiamidic Acid 1,4-Phenylene Ester] | 90
CC(C)(c1ccc(OP(N)(N)=O)cc1)c1ccc(OP(N)(N)=O)cc1 [Phosphorodiamidic Acid (1-Methylethylidene)-di-4,1-PhenyleneEster] | 70
